This passage reports EC50 and Emax results from patent US20240208992A1, “MACROCYCLES AS CFTR MODULATORS” (Idorsia Pharmaceuticals Ltd, priority 2021, published 2024).

This assay addresses human F508del-CFTR (Homo sapiens, UniProt P13569, DEL508-508). The assay can be described thus: F508del-CFTR cell surface expression (corrector activity), DiscoveRx ß-galactosidase complementation chemiluminescence assay in recombinant U2OS cell line.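 For all read-outs here: U2OS cells co-expressing ProLink-tagged F508del-CFTR and a membrane-anchored enzyme acceptor, where more surface CFTR restores β-galactosidase activity measured by chemiluminescence.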 Particulars: for EC50: EC50, F508del-CFTR cell surface expression, U2OS cells, 16h compound incubation, geomean values; for Emax: in relation to Emax of corrector lumacaftor (=100%), arithmetic mean values.

Molecules are shown by their SMILES.

human F508del-CFTR, sequence (P13569 with tags, fused parts or gaps DEL508-508): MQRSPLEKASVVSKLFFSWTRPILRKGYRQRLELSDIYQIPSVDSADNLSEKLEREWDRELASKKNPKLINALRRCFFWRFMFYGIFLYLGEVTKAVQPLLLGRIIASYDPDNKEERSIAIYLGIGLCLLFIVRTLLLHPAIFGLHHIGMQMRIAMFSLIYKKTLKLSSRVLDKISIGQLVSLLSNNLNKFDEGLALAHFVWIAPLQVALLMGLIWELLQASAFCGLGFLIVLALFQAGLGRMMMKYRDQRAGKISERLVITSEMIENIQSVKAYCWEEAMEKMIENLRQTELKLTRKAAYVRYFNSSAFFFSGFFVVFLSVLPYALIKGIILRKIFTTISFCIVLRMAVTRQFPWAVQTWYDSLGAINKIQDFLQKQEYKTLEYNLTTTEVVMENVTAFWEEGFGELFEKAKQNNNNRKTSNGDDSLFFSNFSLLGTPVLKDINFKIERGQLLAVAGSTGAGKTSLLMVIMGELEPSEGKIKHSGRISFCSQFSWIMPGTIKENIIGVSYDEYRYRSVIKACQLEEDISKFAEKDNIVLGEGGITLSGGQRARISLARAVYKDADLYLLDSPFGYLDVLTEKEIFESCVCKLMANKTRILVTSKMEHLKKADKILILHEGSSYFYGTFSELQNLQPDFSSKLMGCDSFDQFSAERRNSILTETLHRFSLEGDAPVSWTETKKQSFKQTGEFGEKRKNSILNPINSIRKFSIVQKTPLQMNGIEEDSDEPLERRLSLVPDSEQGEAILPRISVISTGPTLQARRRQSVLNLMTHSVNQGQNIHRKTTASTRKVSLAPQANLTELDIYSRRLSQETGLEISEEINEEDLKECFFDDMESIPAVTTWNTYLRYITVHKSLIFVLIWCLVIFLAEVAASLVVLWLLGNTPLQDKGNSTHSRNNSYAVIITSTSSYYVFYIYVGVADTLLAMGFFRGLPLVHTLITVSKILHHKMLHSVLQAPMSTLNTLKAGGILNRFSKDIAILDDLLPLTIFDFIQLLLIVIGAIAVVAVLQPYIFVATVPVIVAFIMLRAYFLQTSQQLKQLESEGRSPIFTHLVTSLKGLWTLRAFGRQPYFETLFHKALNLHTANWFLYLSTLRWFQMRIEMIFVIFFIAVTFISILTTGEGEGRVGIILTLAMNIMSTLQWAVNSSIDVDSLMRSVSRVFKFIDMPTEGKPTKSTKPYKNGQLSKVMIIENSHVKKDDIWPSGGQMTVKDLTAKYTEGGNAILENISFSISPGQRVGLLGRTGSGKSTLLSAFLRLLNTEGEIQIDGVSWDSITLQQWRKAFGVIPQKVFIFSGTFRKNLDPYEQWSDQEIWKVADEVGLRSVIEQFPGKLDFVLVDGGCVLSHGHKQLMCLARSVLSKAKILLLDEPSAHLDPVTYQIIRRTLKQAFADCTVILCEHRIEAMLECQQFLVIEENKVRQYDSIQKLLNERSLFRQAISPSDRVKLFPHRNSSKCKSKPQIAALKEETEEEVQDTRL

As a reminder, the EC50 is the concentration needed to bring the measured effect to its halfway point. Broadly, the Emax is the maximal effect, on the per cent scale that the assay sets. Regarding `CCN1C(=O)C[C@@H](C(=O)NCCc2cc(C)no2)NC(=O)c2c(cnc3ccccc23)OC[C@@H](Cc2ccccc2)NC(=O)[C@H]2CCCCN2C(=O)[C@@H]1CC(C)C` [Example 506, (9S,13S,19aR,22R)-22-benzyl-12-ethyl-13-isobutyl-N-(2-(3-methylisoxazol-5-yl)ethyl)-7,11,14,20-tetraoxo-7,8,9,10,11,12,13,14,17,18,19,19a,20,21,22,23-hexadecahydro-16H-pyrido[2′,1′:6,7][1]oxa[4,7,10,14]tetraazacycloheptadecino[17,16-c]quinoline-9-carboxamide], the EC50 amounted to 318 nM. Besides, the Emax (U2OS) was 211%.

On to `COc1cccc(CCNC(=O)[C@@H]2CC(=O)N(C)[C@@H](CC(C)C)C(=O)N(C)CC(=O)N[C@H](Cc3ccccc3)COc3ccc4ncc(F)cc4c3C(=O)N2)c1` [Example 507, (3S,7S,13R)-13-benzyl-20-fluoro-7-isobutyl-N-(3-methoxyphenethyl)-6,9-dimethyl-1,5,8,11-tetraoxo-1,2,3,4,5,6,7,8,9,10,11,12,13,14-tetradecahydro-[1]oxa[4,7,10,14]tetraazacycloheptadecino[16,17-f]quinoline-3-carboxamide], for which the EC50 was 469 nM. Moreover, the Emax (U2OS) is 337%.

Consider `Cc1cc(CCNC(=O)[C@@H]2CC(=O)N(C)[C@@H](CC(C)C)C(=O)N(C)[C@H](C3CC3)C(=O)N[C@H](Cc3ccccc3)COc3ccc4ccccc4c3C(=O)N2)on1` [Example 508, (3S,7S,10R,13R)-13-benzyl-10-cyclopropyl-7-isobutyl-6,9-dimethyl-N-(2-(3-methylisoxazol-5-yl)ethyl)-1,5,8,11-tetraoxo-1,2,3,4,5,6,7,8,9,10,11,12,13,14-tetradecahydronaphtho[1,2-p][1]oxa[4,7,10,14]tetraazacycloheptadecine-3-carboxamide], for which the EC50 was 382 nM. The Emax (U2OS) is 378%.

Turning to `COc1cccc(CCNC(=O)[C@@H]2CC(=O)N(C)[C@@H](CC(C)C)C(=O)N3CCN(c4ccccc4)C[C@@H]3C(=O)N[C@H](Cc3ccccc3)COc3cnc4ccccc4c3C(=O)N2)c1` [Example 509, (9S,13S,19aR,22R)-22-benzyl-13-isobutyl-N-(3-methoxyphenethyl)-12-methyl-7,11,14,20-tetraoxo-18-phenyl-7,8,9,10,11,12,13,14,17,18,19,19a,20,21,22,23-hexadecahydro-16H-pyrazino[2′,11:6,7][1]oxa[4,7,10,14]tetraazacycloheptadecino[17,16-c]quinoline-9-carboxamide], the EC50 was 75 nM. In addition, the Emax (U2OS) was determined as 327%.

Regarding `Cc1cc(CCNC(=O)[C@@H]2CC(=O)N(C)[C@@H](CC(C)C)C(=O)N3CCN(c4ccccc4)C[C@@H]3C(=O)N[C@H](Cc3ccccc3)COc3cnc4ccccc4c3C(=O)N2)on1` [Example 510, (9S,13S,19aR,22R)-22-benzyl-13-isobutyl-12-methyl-N-(2-(3-methylisoxazol-5-yl)ethyl)-7,11,14,20-tetraoxo-18-phenyl-7,8,9,10,11,12,13,14,17,18,19,19a,20,21,22,23-hexadecahydro-16H-pyrazino[2′,11:6,7][1]oxa[4,7,10,14]tetraazacycloheptadecino[17,16-c]quinoline-9-carboxamide], the EC50 is 108 nM. Moreover, for the setting “U2OS”, the maximal response (Emax) is 256%.

For `COc1nccc2c1C(=O)N[C@H](C(=O)NCCc1nc(C3CC3)no1)CC(=O)N(C)[C@@H](CC(C)C)C(=O)N1CCCC[C@@H]1C(=O)N[C@H](Cc1ccccc1)CO2` [Example 511, (7S,11S,17aR,20R)-20-benzyl-N-(2-(3-cyclopropyl-1,2,4-oxadiazol-5-yl)ethyl)-11-isobutyl-4-methoxy-10-methyl-5,9,12,18-tetraoxo-5,6,7,8,9,10,11,12,15,16,17,17a,18,19,20,21-hexadecahydro-14H-dipyrido[2,1-f:3′,4′-p][1]oxa[4,7,10,14]tetraazacycloheptadecine-7-carboxamide], the EC50 was 624 nM. In addition, under “U2OS”, the Emax was 314%.

Turning to `COc1nccc2c1C(=O)N[C@H](C(=O)NCCc1cc(C3CC3)on1)CC(=O)N(C)[C@@H](CC(C)C)C(=O)N1CCCC[C@@H]1C(=O)N[C@H](Cc1ccccc1)CO2` [Example 512, (7S,11S,17aR,20R)-20-benzyl-N-(2-(5-cyclopropylisoxazol-3-yl)ethyl)-11-isobutyl-4-methoxy-10-methyl-5,9,12,18-tetraoxo-5,6,7,8,9,10,11,12,15,16,17,17a,18,19,20,21-hexadecahydro-14H-dipyrido[2,1-f:3′,4′-p][1]oxa[4,7,10,14]tetraazacycloheptadecine-7-carboxamide], the EC50 stood at 300 nM. The Emax (U2OS) came out at 316%.

Take `COc1cccc(CCNC(=O)[C@@H]2CC(=O)N(C)[C@@H](CC(C)C)C(=O)N(C)CC(=O)N[C@H](Cc3ccccc3)COc3nccc(OC)c3C(=O)N2)c1` [Example 513, (3R,9S,13S)-3-benzyl-9-isobutyl-16-methoxy-N-(3-methoxyphenethyl)-7,10-dimethyl-5,8,11,15-tetraoxo-2,3,4,5,6,7,8,9,10,11,12,13,14,15-tetradecahydropyrido[3,2-p][1]oxa[4,7,10,14]tetraazacycloheptadecine-13-carboxamide]: the concentration giving a half-maximal response (EC50) is 815 nM. The Emax (U2OS) was 169%.

For the compound `CC(C)C[C@H]1C(=O)N2CCCC[C@@H]2C(=O)N[C@H](Cc2ccccc2)COc2ccc3ncccc3c2C(=O)N[C@H](C(=O)NCCc2cc(C3CC3)no2)CC(=O)N1C` [Example 514, (9S,13S,19aR,22R)-22-benzyl-N-(2-(3-cyclopropylisoxazol-5-yl)ethyl)-13-isobutyl-12-methyl-7,11,14,20-tetraoxo-7,8,9,10,11,12,13,14,17,18,19,19a,20,21,22,23-hexadecahydro-16H-pyrido[2′,11:6,7][1]oxa[4,7,10,14]tetraazacycloheptadecino[16,17-f]quinoline-9-carboxamide], the EC50 was found to be 170 nM. Also, the Emax (U2OS) amounted to 304%.

For `COc1cc2c(cn1)OC[C@@H](Cc1ccccc1)NC(=O)[C@H]1CCCCN1C(=O)[C@H](CC(C)C)N(C)C(=O)C[C@@H](C(=O)NCCc1cc(C3CC3)no1)NC2=O` [Example 517, (7S,11S,17aR,20R)-20-benzyl-N-(2-(3-cyclopropylisoxazol-5-yl)ethyl)-11-isobutyl-3-methoxy-10-methyl-5,9,12,18-tetraoxo-5,6,7,8,9,10,11,12,15,16,17,17a,18,19,20,21-hexadecahydro-14H-dipyrido[2,1-f:2′,3′-p][1]oxa[4,7,10,14]tetraazacycloheptadecine-7-carboxamide], the concentration for a half-maximal effect (EC50) is 986 nM. The maximum response (Emax) (U2OS) was determined as 222%.

As for `COc1cc2c(cn1)OC[C@@H](Cc1ccccc1)NC(=O)[C@H]1CCCCN1C(=O)[C@H](CC(C)C)N(C)C(=O)C[C@@H](C(=O)NCCc1cc(C3CC3)on1)NC2=O` [Example 518, (7S,11S,17aR,20R)-20-benzyl-N-(2-(5-cyclopropylisoxazol-3-yl)ethyl)-11-isobutyl-3-methoxy-10-methyl-5,9,12,18-tetraoxo-5,6,7,8,9,10,11,12,15,16,17,17a,18,19,20,21-hexadecahydro-14H-dipyrido[2,1-f:2′,3′-p][1]oxa[4,7,10,14]tetraazacycloheptadecine-7-carboxamide], the EC50 worked out at 655 nM and the Emax amounted to 189%.

In the case of `CC(C)C[C@H]1C(=O)N(C)C2(CC2)C(=O)N[C@H](Cc2ccccc2)COc2cnc3ccc(F)cc3c2C(=O)N[C@H](C(=O)NCCc2cc(C3CC3)no2)CC(=O)N1C` [Example 519, (3′S,7′S,13′R)-13′-benzyl-N-(2-(3-cyclopropylisoxazol-5-yl)ethyl)-20′-fluoro-7′-isobutyl-6′,9′-dimethyl-1′,5′,8′,11′-tetraoxo-2′,3′,4′,5′,6′,7′,8′,9′,11′,12′,13′,14′-dodecahydro-1′H-spiro[cyclopropane-1,10′-[1]oxa[4,7,10,14]tetraazacycloheptadecino[17,16-c]quinoline]-3′-carboxamide], the EC50 stood at 184 nM. Also, under “U2OS”, the Emax is 332%.

On to `CC(C)C[C@H]1C(=O)N2CCCC[C@H]2C(=O)N[C@H](Cc2ccccc2)COc2cnc3ccc(F)cc3c2C(=O)N[C@H](C(=O)NCCc2noc(C3CC3)n2)CC(=O)N1C` [Example 520, (9S,13S,19aS,22R)-22-benzyl-N-(2-(5-cyclopropyl-1,2,4-oxadiazol-3-yl)ethyl)-5-fluoro-13-isobutyl-12-methyl-7,11,14,20-tetraoxo-7,8,9,10,11,12,13,14,17,18,19,19a,20,21,22,23-hexadecahydro-16H-pyrido[2′,11:6,7][1]oxa[4,7,10,14]tetraazacycloheptadecino[17,16-c]quinoline-9-carboxamide], for which the EC50 stood at 345 nM. In addition, the Emax (U2OS) came to 155%.

On to `CC(C)C[C@H]1C(=O)N2CCCC[C@H]2C(=O)N[C@H](Cc2ccccc2)COc2cnc3ccc(F)cc3c2C(=O)N[C@H](C(=O)NCCc2nc(C3CC3)no2)CC(=O)N1C` [Example 521, (9S,13S,19aS,22R)-22-benzyl-N-(2-(3-cyclopropyl-1,2,4-oxadiazol-5-yl)ethyl)-5-fluoro-13-isobutyl-12-methyl-7,11,14,20-tetraoxo-7,8,9,10,11,12,13,14,17,18,19,19a,20,21,22,23-hexadecahydro-16H-pyrido[2′,1′:6,7][1]oxa[4,7,10,14]tetraazacycloheptadecino[17,16-c]quinoline-9-carboxamide], for which the EC50 came to 433 nM. Also, where the note is “U2OS”, the Emax is 191%.

`CC(C)C[C@H]1C(=O)N2CCCC[C@H]2C(=O)N[C@H](Cc2ccccc2)COc2cnc3c(F)cccc3c2C(=O)N[C@H](C(=O)NCCc2ccc(-n3nccn3)cc2)CC(=O)N1C` [Example 522, (9S,13S,19aR,22R)-N-(4-(2H-1,2,3-triazol-2-yl)phenethyl)-22-benzyl-3-fluoro-13-isobutyl-12-methyl-7,11,14,20-tetraoxo-7,8,9,10,11,12,13,14,17,18,19,19a,20,21,22,23-hexadecahydro-16H-pyrido[2′,1′:6,7][1]oxa[4,7,10,14]tetraazacycloheptadecino[17,16-c]quinoline-9-carboxamide]: the EC50 was found to be 204 nM. Further, the Emax (U2OS) came out at 237%.
